Measurements from patent publication US20070129367A1, “Pyridine derivatives as cb2 receptor modulators” (priority 2002, published 2007).
Where two headings read alike, the source gives them in different places.

Target: T1, human cannabinoid CB2 receptor (Homo sapiens, UniProt P34972)
T1 construct: expressed in transfected cells; host or cells: Saccharomyces cerevisiae strain MMY23 (cassette integrated at the ura3 locus, GPD promoter)
Experiment: Cannabinoid CB2 receptor agonist activity in yeast (Saccharomyces cerevisiae) cells expressing the receptor, FDGlu fluorescence readout;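 as to Emax: percent of the maximal response of the reference agonist HU210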
Format: cell-based
Settings: for Emax: read-out: efficacy (Emax) at the cloned human cannabinoid CB2 receptor
Protocol: Determination of Cannabinoid CB2 Receptor Agonist Activity
The cannabinoid CB2 receptor agonist activity of the compounds of formula (I) was determined in accordance with the following experimental method.
Yeast (Saccharomyces cerevisiae) cells expressing the human cannabinoid CB2 receptor were generated by integration of an expression cassette into the ura3 chromosomal locus of yeast strain MMY23. This cassette consisted of DNA sequence encoding the human CB2 receptor flanked by the yeast GPD promoter to the 5′ end of CB2 and a yeast transcriptional terminator sequence to the 3′ end of CB2. MMY23 expresses a yeast/mammalian chimeric G-protein alpha subunit in which the C-terminal 5 amino acids of Gpa1 are replaced with the C-terminal 5 amino acids of human Gαi3 (as described in Brown et aL (2000), Yeast 16:11-22). Cells were grown at 30° C. in liquid Synthetic Complete (SC) yeast media (Guthrie and Fink (1991), Methods in Enzymology, Vol. 194) lacking uracil, tryptophan, adenine and leucine to late logarithmic phase (approximately 6 OD600/ml).
Agonists were prepared as 10 mM stocks in DMSO. […] Agonist solutions in DMSO (1% final assay volume) were transferred into black, clear bottom, microtitre plates from NUNC (96- or 384-well). […] This mixture (50 ul per well for 384-well plates, 200 ul per well for 96-well plates) was added to agonist in the assay plates (Multidrop 384, Labsystems). After incubation at 30° C. for 24 hours, fluorescence resulting from degradation of FDGlu to fluorescein due to exoglucanase, an endogenous yeast enzyme produced during agonist-stimulated cell growth, was determined using a Spectrofluor microtitre plate reader (Tecan; excitation wavelength: 485 nm; emission wavelength: 535 nm). Fluorescence was plotted against compound concentration and iteratively curve fitted using a four parameter fit to generate a concentration effect value. […] Equieffective molar ratio (EMR) values were calculated from the equation EMR=EC50 [compound X]/EC50 [HU210]
Where EC50 [compound X] is the EC50 of compound X and EC50 [HU210] is the EC50 of HU210.

[1] = agonist activity, yeast cells, 24 hours at 30° C., read-out: EC50 at the cloned human cannabinoid CB2 receptor

T1 sequence (P34972 whole entry): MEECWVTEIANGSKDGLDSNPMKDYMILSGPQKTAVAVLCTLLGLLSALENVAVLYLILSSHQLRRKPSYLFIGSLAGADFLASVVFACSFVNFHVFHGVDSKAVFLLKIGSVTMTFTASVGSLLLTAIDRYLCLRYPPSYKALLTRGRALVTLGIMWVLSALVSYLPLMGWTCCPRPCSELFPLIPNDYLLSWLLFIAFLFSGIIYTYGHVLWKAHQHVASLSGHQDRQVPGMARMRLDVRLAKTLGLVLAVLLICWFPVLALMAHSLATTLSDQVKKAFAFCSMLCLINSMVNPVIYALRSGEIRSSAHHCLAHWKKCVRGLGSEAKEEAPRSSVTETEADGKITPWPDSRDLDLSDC

SMILES | EC50 [nM] | Emax [%] | EC50 [1] [nM]
O=C(NCc1ccncc1)c1cnc(Nc2cccc(Cl)c2)cc1C(F)(F)F [Example 1, 2-(3-Chlorophenylamino)-4-trifluoromethylpyridine-5-carboxylic acid (pyridin-4-ylmethyl) amide] | < 300 | > 50 | 
O=C(NCc1ccccc1)c1cnc(Nc2cccc(Cl)c2)cc1C(F)(F)F [Example 2, 2-(3-Chlorophenylamino)-4-trifluoromethylpyridine-5-carboxylic acid benzylamide] | < 300 | > 50 | 
CC(C)c1cc(Nc2cccc(Cl)c2)ncc1C(=O)NCc1ccc(F)cc1 [Example 3, 6-(3-Chlorophenylamino)-N-(4-fluorobenzyl)-4-isopropyl-nicotinamide] |  | > 50 | 
CC(C)c1cc(Nc2cccc(Cl)c2)ncc1C(=O)NCc1ccccc1 [Example 4, N-Benzyl-6-(3-chloro-phenylamino)-4-isopropyl-nicotinamide] | < 300 | > 50 | 
CC(C)c1cc(Nc2cccc(Cl)c2)ncc1C(=O)NCc1ccc(C#N)cc1 [Example 5, 6-(3-Chloro-phenylamino)-N-(4-cyano-benzyl)-4-isopropyl-nicotinamide] | 300 to 1000 | > 50 | 
COc1ccc(CNC(=O)c2cnc(Nc3cccc(Cl)c3)cc2C(C)C)cc1 [Example 6, 6-(3-Chloro-phenylamino)-4-isopropyl-N-(4-methoxy-benzyl)-nicotinamide] | 300 to 1000 | > 50 | 
CC(C)c1cc(Nc2cccc(Cl)c2)ncc1C(=O)NCc1ccc(F)c(F)c1 [Example 7, 6-(3-Chloro-phenylamino)-N-(3,4-difluoro-benzyl)-4-isopropyl-nicotinamide] | 300 to 1000 | > 50 | 
CC(C)c1cc(Nc2cccc(Cl)c2)ncc1C(=O)NCc1ccc(C(N)=O)cc1 [Example 8, N-(4-Carbamoyl-benzyl)-6-(3-chloro-phenylamino)-4-isopropyl-nicotinamide] |  |  | 300 to 1000
CC(C)c1cc(Nc2cccc(C(F)(F)F)c2)ncc1C(=O)NCc1ccc(F)cc1 [Example 14, N-(4-Fluoro-benzyl)-4-isopropyl-6-(3-trifluoromethyl-phenylamino)-nicotinamide] | 300 to 1000 | > 50 | 
CC(C)c1cc(Nc2ccc(F)c(Cl)c2)ncc1C(=O)NCc1ccc(F)cc1 [Example 15, 6-(3-Chloro-4-fluoro-phenylamino)-N-(4-fluoro-benzyl)-4-isopropyl-nicotinamide] |  |  | < 300
Cc1cccc(Nc2cc(C(C)C)c(C(=O)NCc3ccc(F)cc3)cn2)c1C#N [Example 16, 6-(2-Cyano-3-methyl-phenylamino)-N-(4-fluoro-benzyl)-4-isopropyl-nicotinamide] | 300 to 1000 | > 50 | 
CC(C)c1cc(Nc2cccc(F)c2)ncc1C(=O)NCc1ccc(F)cc1 [Example 17, N-(4-Fluoro-benzyl)-6-(3-fluoro-phenylamino)-4-isopropyl-nicotinamide] | < 300 | > 50 | 
CC(C)c1cc(Nc2ccc(C#N)cc2)ncc1C(=O)NCc1ccc(F)cc1 [Example 18, 6-(4-Cyano-phenylamino)-N-(4-fluoro-benzyl)-4-isopropyl-nicotinamide] |  |  | < 300
CC(C)c1cc(Nc2cccc(C#N)c2)ncc1C(=O)NCc1ccc(F)cc1 [Example 19, 6-(3-Cyano-phenylamino)-N-(4-fluoro-benzyl)-4-isopropyl-nicotinamide] |  |  | < 300
CC(C)c1cc(Nc2ccc(Cl)cc2F)ncc1C(=O)NCc1ccc(F)cc1 [Example 20, 6-(4-Chloro-2-fluoro-phenylamino)-N-(4-fluoro-benzyl)-4-isopropyl-nicotinamide] | < 300 | > 50 | 
CC(C)c1cc(Nc2ccc(Br)cc2Cl)ncc1C(=O)NCc1ccc(F)cc1 [Example 21, 6-(4-Bromo-2-chloro-phenylamino)-N-(4-fluoro-benzyl)-4-isopropyl-nicotinamide] | < 300 | > 50 | 
CC(C)c1cc(Nc2ccc(Cl)cc2Cl)ncc1C(=O)NCc1ccc(F)cc1 [Example 22, 6-(2,4-Dichloro-phenylamino)-N-(4-fluoro-benzyl)-4-isopropyl-nicotinamide] | < 300 | > 50 | 
CC(C)c1cc(Nc2ccc(C#N)c(Cl)c2)ncc1C(=O)NCc1ccc(F)cc1 [Example 23, 6-(3-Chloro-4-cyano-phenylamino)-N-(4-fluoro-benzyl)-4-isopropyl-nicotinamide] | < 300 | > 50 | 

SMILES | EC50 [nM] | Emax [%] | EC50 [1] [nM]
CC(C)c1cc(Nc2ccc(Br)c(F)c2)ncc1C(=O)NCc1ccc(F)cc1 [Example 24, 6-(4-Bromo-3-fluoro-fluoro-benzyl)-4-phenylamino)-N-(4-isopropyl-nicotinamide] |  |  | < 300
CC(C)c1cc(Nc2cccc(OC(F)(F)F)c2)ncc1C(=O)NCc1ccc(F)cc1 [Example 25, N-(4-Fluoro-benzyl)-4-isopropyl-6-(3-trifluoromethoxy-phenylamino)-nicotinamide] | 300 to 1000 | > 50 | 
CC(C)c1cc(Nc2cccc(Cl)c2F)ncc1C(=O)NCc1ccc(F)cc1 [Example 26, 6-(3-Chloro-2-fluoro-phenylamino)-N-(4-fluoro-benzyl)-4-isopropyl-nicotinamide] | 300 to 1000 | > 50 | 
Cc1c(Br)cccc1Nc1cc(C(C)C)c(C(=O)NCc2ccc(F)cc2)cn1 [Example 27, 6-(3-Bromo-2-methyl-phenylamino)-N-(4-fluoro-benzyl)-4-isopropyl-nicotinamide] | 300 to 1000 | > 50 | 
Cc1c(Cl)cccc1Nc1cc(C(C)C)c(C(=O)NCc2ccc(F)cc2)cn1 [Example 28, 6-(3-Chloro-2-methyl-phenylamino)-N-(4-fluoro-benzyl)-4-isopropyl-nicotinamide] | 300 to 1000 | > 50 | 
Cc1cccc(Nc2cc(C(C)C)c(C(=O)NCc3ccc(F)cc3)cn2)c1 [Example 29, N-(4-Fluoro-benzyl)-4-isopropyl-6-m-tolylamino-nicotinamide] | 300 to 1000 | > 50 | 
COc1cccc(Nc2cc(C(C)C)c(C(=O)NCc3ccc(F)cc3)cn2)c1 [Example 30] | 300 to 1000 | > 50 | 
CC(C)c1cc(Nc2ccc(Br)cc2F)ncc1C(=O)NCc1ccc(F)cc1 [Example 31, 6-(4-Bromo-2-fluoro-phenylamino)-N-(4-fluoro-benzyl)-4-isopropyl-nicotinamide] |  |  | 300 to 1000
CC(C)c1cc(Nc2ccc(Cl)c(Cl)c2)ncc1C(=O)NCc1ccc(F)cc1 [Example 32, 6-(3,4-Dichloro-phenylamino)-N-(4-fluoro-benzyl)-4-isopropyl-nicotinamide] | 300 to 1000 | > 50 | 
O=C(NCc1ccc(F)cc1)c1cnc(Nc2cccc(Cl)c2)cc1C(F)(F)F [Example 44, N-(4-Fluoro-benzyl)-6-(3-chloro-phenylamino)-4-trifluoromethyl-nicotinamide] | < 300 | > 50 | 
O=C(NCc1ccnc(F)c1)c1cnc(Nc2cccc(Cl)c2)cc1C(F)(F)F [Example 45, N-(2-Fluoro-pyridin-4-ylmethyl)-6-(3-chloro-phenylamino)-4-trifluoromethyl-nicotinamide] | < 300 | > 50 | 
O=C(NCc1ccc(F)cc1)c1cnc(Nc2cccc(Br)c2)cc1C(F)(F)F [Example 46, N-(4-Fluoro-benzyl)-6-(3-bromo-phenylamino)-4-trifluoromethyl-nicotinamide] |  | > 50 | 
O=C(NCc1ccc(F)cc1)c1cnc(Nc2cccc(F)c2)cc1C(F)(F)F [Example 49, N-(4-Fluoro-benzyl)-6-(3-fluoro-phenylamino)-4-trifluoromethyl-nicotinamide] | < 300 | > 50 | 
O=C(NCc1ccnc(F)c1)c1cnc(Nc2cccc(Cl)c2Cl)cc1C(F)(F)F [Example 50, N-(2-Fluoro-pyridin-4-ylmethyl)-6-(2,3-dichloro-phenylamino)-4-trifluoromethyl-nicotinamide] | < 300 | > 50 | 
O=C(NCc1ccnc(F)c1)c1cnc(Nc2ccc(Cl)cc2Cl)cc1C(F)(F)F [Example 51, N-(2-Fluoro-pyridin-4-ylmethyl)-6-(2,4-dichloro-phenylamino)-4-trifluoromethyl-nicotinamide] | < 300 | > 50 | 
O=C(NCc1ccc(F)cc1)c1cnc(Nc2ccc(Cl)cc2Cl)cc1C(F)(F)F [Example 52] | < 300 | > 50 | 
O=C(NCc1ccc(F)cc1)c1cnc(Nc2cc(Cl)cc(Cl)c2)cc1C(F)(F)F [Example 53] | < 300 | > 50 | 
